Laboratory results published in patent US10801077B2, “Influenza A virus variants” (Vertex Pharmaceuticals Incorporated, priority 2014, dated 2020).

What was measured:
[1] = test system: A/Puerto Rico/8/34 (A/H1N1) influenza virus isolates; type: cell-based
[2] = test system: A/California/07/2009 (A/H1N1) influenza virus isolates; type: cell-based

Structure (SMILES): CC(C)(C)[C@@H](CC(=O)O)Nc1nc(-c2c[nH]c3ncc(F)cc23)ncc1F [Compound 1]
- EC50 shift [1]: 286 fold
- EC50 shift [2]: 500 fold
